Key:
[1] = tested on: Melanocyte-stimulating hormone receptor (Anolis carolinensis); assay: […] potency against Anolis carolinensis using lizard skin bioassay; effect did not continue after the removal of the compound
[2] = tested on: Melanocyte-stimulating hormone receptor (Rana pipiens); assay: […] potency against Rana pipiens using frog skin bioassay; effect did not continue after the removal of the compound

CCCC[C@H](NC(C)=O)C(=O)N[C@H]1CC(=O)NCCC[C@@H](C(N)=O)NC(=O)[C@H](Cc2c[nH]c3ccccc23)NC(=O)[C@H](CCCN=C(N)N)NC(=O)[C@@H](Cc2ccccc2)NC(=O)[C@H](Cc2cnc[nH]2)NC1=O
Relative potency [1]: 20 | Relative potency [2]: 1

Source: ChEMBL document CHEMBL1124377, “Potent and prolonged acting cyclic lactam analogues of alpha-melanotropin: design based on molecular dynamics” (J Med Chem, 1989)
